# From patent publication US20110117168A1, “METHODS AND COMPOSITIONS FOR SOFT TISSUE REPAIR” (AFFINERGY, INC., priority 2009, published 2011)
# Ends that are not written are not given here.
# Experiments:
# peripheral blood cells = assay: Biotinylated peptide binding to endothelial and other cells by flow cytometry; format: cell-based, human; details: biotinylated peptide 10 μM, 30 min at 4° C.
# Description: (§1) The synthetic biotinylated binding peptide SEQ ID NO: 4 was further examined for its ability to bind endothelial cells compared to other cell types (see FIG. 16). […] ECFCs are clonally expanded cells isolated from human umbilical cord blood, and are considered highly proliferative endothelial progenitor cells (EPCs) based on their clonogenic and proliferative potential. In another experiment, binding peptide SEQ ID NO: 4 was assayed for its ability to selectively isolate endothelial cells versus smooth muscle cells in the presence of whole blood. HUVECs or UASMCs were incubated in the presence of medium containing 20% whole blood and binding peptide SEQ ID NO: 4-conjugated magnetic beads (via biotin-SA) for 30 min. The solutions containing the bead-peptide-cell complexes were then passed through a […] LS column in a magnetic field. The column was washed, and the remaining peptide-bound cells were then released from the magnetic field and counted.
# HUVECs [1] = assay: as above; format: cell-based, human; details: biotinylated peptide 10 μM, 30 min at 4° C.
# Description: as §1
# ECFCs = assay: as above; format: cell-based, human; details: biotinylated peptide 10 μM, 30 min at 4° C.
# Description: as §1
# UASMCs = assay: as above; format: cell-based; details: biotinylated peptide 10 μM, 30 min at 4° C.
# Description: as §1
# human MSCs = assay: Biotinylated peptide cell binding specificity by flow cytometry (Neutravidin-PE); format: cell-based; details: 25 μM peptide solution, 30 min at 4° C.
# Description: (§2) The synthetic biotinylated cell binding peptide SEQ ID NO: 4 was examined for its ability to specifically bind MSCs compared to a number of other cells types including adipose-derived mesenchymal stem cells (ASCs), dermal fibroblasts, rodent MSCs, red blood cells, monocytes, lymphocytes and granulocytes. The cell binding peptide was biotinylated as described herein at Example 2. Cultured cells of each type were either purchased (ASCs and dermal fibroblasts) or isolated from rodent bone marrow (rodent MSCs) or human blood. Cells were first harvested and resuspended at 10^6/mL in PBS+2% fetal bovine serum (FBS). An aliquot of cells (50 μL) was incubated in 50 μL of peptide solution (25 μM in PBS+FBS) for 30 min at 4° C. Cells were then washed twice in PBS+FBS with 300×g centrifugation for 5 min between washes. Fluorescently-tagged neutravidin (Neutravidin-PE from INVITROGEN) was then added to the cells to label biotinylated peptide bound to cells. Neutravidin-PE was diluted 1:250 from stock and applied at 50 μL to cells. Cells were then washed in PBS+FBS, and acquired on a BD […]. Peptide reactivity was then measured as percent positivity relative to Neutravidin-PE staining without the addition of biotinylated peptide.
# human ASCs = assay: as above; format: cell-based; details: 25 μM peptide solution, 30 min at 4° C.
# Description: as §2
# HUVECs [2] = assay: Endothelial cell phenotype and anti-thrombogenic protein expression on peptide-modified collagen; format: cell-based, human; details: HUVECs cultured 24 hours; t-PA and 6-keto Prostaglandin F1a ELISA, flow cytometry
# Description: Once immobilized on a vascular graft, endothelial cells must retain their characteristic properties of promoting endothelialization. Therefore, the phenotype, viability, and anti-thrombogenic protein expression profiles were evaluated for endothelial cells in the presence of collagen modified with the endothelial cell binding peptide SEQ ID NO: 4 (generated according to Example 7 using BS^3 reagent). […] Specifically, HUVECs were plated on SEQ ID NO: 4 peptide-modified collagen, collagen with 10 μM free SEQ ID NO: 4 peptide or collagen alone for 24 hours. Flow cytometry was performed using a BD […], and ELISAs were performed according to manufacturers instructions. (FIGS. 22A & 22B). Tissue-type Plasminogen Activator (t-PA) and 6-keto Prostaglandin F1a protein expression levels secreted in this assay are aligned with other reports on cultured HUVECS (Kimura and Yokoi-Hayashi, Biochim Biophys Acta, 1996, 1310:1-4; Merhi-Soussi et al., J Leukoc Biol, 2000, 68:881-9).
# MSCs = assay: Immunoreactivity of cells captured from bone marrow aspirate; format: cell-based, human; details: CD29, CD44, CD73, CD105, CD166, CD90, CD45, CD34
# Description: This experiment was performed to examine the ability of cell binding peptide SEQ ID NO: 4 to capture MSCs directly from bone marrow aspirate in comparison to two separate antibodies against the CD105 I antigen (CD105) and the MSCA-1 stem cell antigen (MSCA-1). This experiment employed biotinylated peptides with streptavidin-coated […] magnetic beads. The peptides were biotinylated as described herein at Example 2. […] For the antibody capture experiment, magnetic beads having covalently attached CD105 or MSCA-1 antibody were employed ([…]). Prior to incubation with the peptides and antibodies, bone marrow aspirate (BMA) was mixed with 5 volumes of 10 mM ammonium chloride for 1-2 min at room temperature to lyse red blood cells. The lysate was centrifuged for 5 min at 300×g and the supernatant discarded. The cell pellet was washed with wash buffer (PBS+0.5% bovine serum albumin+0.5 mM EDTA) and cells were resuspended in […] peptide at a concentration of 10^8 per mL. For peptide binding studies, the cell suspension was incubated with the biotinylated peptides for 30 min at 4° C. to allow for binding. After incubation, cells were spun down at 300×g for 5 min, and peptide solution was aspirated. Cells were then rinsed twice with wash buffer, with centrifugation between washes. […] Colony forming units (CFUs) were counted after 14 days in culture. […]
# dermal fibroblasts = assay: Biotinylated peptide cell binding specificity by flow cytometry (Neutravidin-PE); format: cell-based, human; details: 25 μM peptide solution, 30 min at 4° C.
# Description: as §2
sequence,measurement,setting,value
"SSFWDVCQGDGTCYGGGSR (SSFWDVCQGDGTCYGGGSRGSSG-{K(biotin)}; cysteine pairing not given here) [SEQ ID NO: 4, tested biotinylated with GSSGK(biotin) or other spacer at the C-terminus]",cross-reactivity with peripheral blood cells,peripheral blood cells,no cross-reactivity
same,cross-reactivity with HUVECs,HUVECs [1],strongly
same,cross-reactivity with ECFCs,ECFCs,strongly
same,cross-reactivity with UASMCs,UASMCs,weakly
same,binding to human MSCs (percent positivity relative to Neutravidin-PE staining),human MSCs,high binding
same,binding to human ASCs (percent positivity relative to Neutravidin-PE staining),human ASCs,high binding
same,endothelial cell phenotype and anti-thrombogenic protein secretion,HUVECs [2],maintained their endothelial cell phenotype and their ability to secrete anti-thrombogenic proteins
same,immunoreactivity of isolated cells compared with CD105 isolated cells,MSCs,no changes were observed
same,binding to dermal fibroblasts (percent positivity relative to Neutravidin-PE staining),dermal fibroblasts,high binding
